The record followed here is patent US11414413B2, “Heterocyclic compound as JAK inhibitor, and salts and therapeutic use thereof” (Suzhou Longbiotech Pharmaceuticals Co., Ltd., priority 2016, dated 2022).

Common to all, as to assay type: biochemical
In one experiment the target is JAK2 (Homo sapiens (Human), UniProt O60674). Briefly: Inhibition of JAK2, luminescence kinase assay (ADP-Glo). Particulars: purified recombinant JAK2. How it is done:
(§1) The study of the effect of compounds on the activity of purified recombinant JAK was performed by studying the inhibitory activity of the compounds on JAK from the enzymatic level. The experimental principle is to use a luminescence kinase assay to detect the ADP content produced by the reaction of JAK with the substrate Poly (4:1 Glu, Tyr) peptide: after ADP is converted to ATP, ATP can act as a substrate for the Ultra-Glo luciferase catalytic reaction, producing an optical signal. The luminescence signal is positively correlated with the amount of ADP and kinase activity. Therefore, the inhibitory effect of the compounds on the recombinant JAK was determined by observing the luminescence signal produced by the reaction of JAK and the substrate, and was expressed by IC50.
(§2) Experimental method: 10 different concentrations of compounds were incubated with JAK1, JAK2 and JAK3, respectively, for 60 minutes at 37° C. The substrate and ATP were then added, mixed, and reacted at 37° C. for 50 minutes. 25 μl of ADP-Glo™ was added and mixed for 2 minutes. The reaction was carried out for 50 minutes at room temperature. Further, 50 μl of the detection reagent was added and mixed for 2 minutes, and incubated at room temperature for 50 minutes, and detected by a chemiluminometer.
Background: In ADP-Glo the light output rises with the ADP produced.

A further experiment concerns the target JAK1 (Homo sapiens (Human), UniProt P23458). Briefly: Inhibition of JAK1, luminescence kinase assay (ADP-Glo). Particulars: purified recombinant JAK1. How it is done: as §1, §2
For another experiment, the target named is JAK3 (Homo sapiens (Human), UniProt P52333). Briefly: Inhibition of JAK3, luminescence kinase assay (ADP-Glo). The following applies: purified recombinant JAK3. On the procedure: as §1, §2
JAK3, sequence (P52333 whole entry): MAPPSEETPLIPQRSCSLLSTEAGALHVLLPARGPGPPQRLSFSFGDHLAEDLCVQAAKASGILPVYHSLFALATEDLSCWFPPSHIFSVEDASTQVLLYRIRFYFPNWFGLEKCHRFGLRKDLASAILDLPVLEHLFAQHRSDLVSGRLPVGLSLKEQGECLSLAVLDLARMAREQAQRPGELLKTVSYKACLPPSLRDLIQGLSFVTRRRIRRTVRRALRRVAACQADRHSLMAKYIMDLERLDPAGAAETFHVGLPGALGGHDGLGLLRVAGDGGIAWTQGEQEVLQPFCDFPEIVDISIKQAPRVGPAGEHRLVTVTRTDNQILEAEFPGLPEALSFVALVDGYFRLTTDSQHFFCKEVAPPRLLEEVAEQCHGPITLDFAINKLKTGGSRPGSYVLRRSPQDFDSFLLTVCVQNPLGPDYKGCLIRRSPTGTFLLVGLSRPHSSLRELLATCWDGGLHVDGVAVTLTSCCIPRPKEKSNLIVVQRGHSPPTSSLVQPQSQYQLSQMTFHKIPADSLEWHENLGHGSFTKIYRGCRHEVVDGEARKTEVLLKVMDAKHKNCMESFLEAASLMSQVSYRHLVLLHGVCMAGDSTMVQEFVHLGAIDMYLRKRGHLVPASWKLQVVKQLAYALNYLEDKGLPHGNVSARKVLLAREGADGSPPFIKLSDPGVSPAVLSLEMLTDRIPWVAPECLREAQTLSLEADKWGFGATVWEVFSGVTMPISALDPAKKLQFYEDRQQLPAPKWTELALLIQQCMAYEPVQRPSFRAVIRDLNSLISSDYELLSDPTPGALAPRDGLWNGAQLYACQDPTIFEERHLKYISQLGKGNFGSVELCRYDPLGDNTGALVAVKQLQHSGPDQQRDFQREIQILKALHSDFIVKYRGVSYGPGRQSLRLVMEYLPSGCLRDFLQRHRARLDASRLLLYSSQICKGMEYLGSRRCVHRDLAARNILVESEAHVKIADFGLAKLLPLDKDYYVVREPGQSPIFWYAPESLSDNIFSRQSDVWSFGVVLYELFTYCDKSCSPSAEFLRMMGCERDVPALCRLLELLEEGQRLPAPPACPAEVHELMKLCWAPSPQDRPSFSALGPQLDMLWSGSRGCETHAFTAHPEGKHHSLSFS

JAK2, sequence (O60674 whole entry): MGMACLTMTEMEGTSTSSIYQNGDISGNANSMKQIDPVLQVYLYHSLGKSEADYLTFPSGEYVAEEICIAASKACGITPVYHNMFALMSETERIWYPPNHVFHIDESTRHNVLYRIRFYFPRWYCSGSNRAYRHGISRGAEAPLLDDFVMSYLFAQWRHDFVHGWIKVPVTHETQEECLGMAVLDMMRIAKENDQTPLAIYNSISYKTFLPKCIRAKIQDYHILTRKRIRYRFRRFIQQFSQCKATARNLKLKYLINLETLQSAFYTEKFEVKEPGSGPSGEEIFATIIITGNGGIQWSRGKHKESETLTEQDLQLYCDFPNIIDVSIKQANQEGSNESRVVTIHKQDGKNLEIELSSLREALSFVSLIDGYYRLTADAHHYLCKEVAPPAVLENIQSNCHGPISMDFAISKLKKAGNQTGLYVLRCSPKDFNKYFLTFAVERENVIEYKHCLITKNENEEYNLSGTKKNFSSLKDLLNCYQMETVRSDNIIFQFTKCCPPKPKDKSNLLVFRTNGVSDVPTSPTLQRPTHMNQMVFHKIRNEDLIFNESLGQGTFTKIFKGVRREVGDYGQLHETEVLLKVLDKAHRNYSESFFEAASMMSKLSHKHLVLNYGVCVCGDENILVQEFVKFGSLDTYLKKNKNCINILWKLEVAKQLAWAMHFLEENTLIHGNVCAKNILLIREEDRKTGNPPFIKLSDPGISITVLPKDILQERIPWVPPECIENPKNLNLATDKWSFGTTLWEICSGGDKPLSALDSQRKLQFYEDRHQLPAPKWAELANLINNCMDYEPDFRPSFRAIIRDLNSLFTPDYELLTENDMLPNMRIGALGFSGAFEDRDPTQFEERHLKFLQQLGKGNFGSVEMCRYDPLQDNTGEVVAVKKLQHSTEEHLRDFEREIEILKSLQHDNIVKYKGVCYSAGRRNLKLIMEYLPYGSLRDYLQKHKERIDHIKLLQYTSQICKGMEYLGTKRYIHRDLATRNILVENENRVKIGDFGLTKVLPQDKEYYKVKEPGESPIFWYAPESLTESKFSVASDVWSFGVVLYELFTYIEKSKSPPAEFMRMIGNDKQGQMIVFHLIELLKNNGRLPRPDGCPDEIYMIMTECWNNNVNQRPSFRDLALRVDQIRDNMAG
JAK1, sequence (P23458 whole entry): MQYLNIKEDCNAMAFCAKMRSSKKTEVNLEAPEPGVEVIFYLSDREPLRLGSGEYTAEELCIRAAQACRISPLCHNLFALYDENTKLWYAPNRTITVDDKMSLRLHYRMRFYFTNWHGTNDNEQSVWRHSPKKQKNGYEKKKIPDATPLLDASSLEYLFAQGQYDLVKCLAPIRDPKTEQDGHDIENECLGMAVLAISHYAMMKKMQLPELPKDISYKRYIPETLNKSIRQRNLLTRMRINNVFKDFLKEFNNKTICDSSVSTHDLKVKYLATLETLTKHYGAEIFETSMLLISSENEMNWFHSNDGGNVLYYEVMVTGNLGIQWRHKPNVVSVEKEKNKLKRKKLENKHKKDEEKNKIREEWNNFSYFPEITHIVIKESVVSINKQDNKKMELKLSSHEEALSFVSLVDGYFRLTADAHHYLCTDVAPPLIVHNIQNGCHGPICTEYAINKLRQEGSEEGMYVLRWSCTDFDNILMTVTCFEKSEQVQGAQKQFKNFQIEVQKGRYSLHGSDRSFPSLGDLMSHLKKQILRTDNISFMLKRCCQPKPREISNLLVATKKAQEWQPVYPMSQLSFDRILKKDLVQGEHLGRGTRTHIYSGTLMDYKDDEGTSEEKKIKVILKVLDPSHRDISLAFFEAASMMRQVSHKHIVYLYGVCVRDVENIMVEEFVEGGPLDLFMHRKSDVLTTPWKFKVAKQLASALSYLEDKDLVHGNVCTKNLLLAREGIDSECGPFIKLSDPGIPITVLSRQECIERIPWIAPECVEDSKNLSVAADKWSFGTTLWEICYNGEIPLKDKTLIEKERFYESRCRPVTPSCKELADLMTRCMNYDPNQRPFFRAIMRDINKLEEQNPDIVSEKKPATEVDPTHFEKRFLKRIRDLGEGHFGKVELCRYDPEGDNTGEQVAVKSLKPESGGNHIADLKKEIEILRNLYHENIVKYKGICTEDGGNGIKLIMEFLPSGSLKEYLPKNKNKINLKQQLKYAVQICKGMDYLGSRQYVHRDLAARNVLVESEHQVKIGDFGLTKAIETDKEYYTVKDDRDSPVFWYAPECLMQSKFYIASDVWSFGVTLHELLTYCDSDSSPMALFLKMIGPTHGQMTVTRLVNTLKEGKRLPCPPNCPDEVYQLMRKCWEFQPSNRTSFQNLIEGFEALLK

For `O=C(CC1(n2cc(-c3ccnc4[nH]ccc34)cn2)CCS(=O)(=O)CC1)NCC(F)(F)F` [Example 21, 2-(4-(4-(7H-pyrrolo[2,3-b]pyridin-4-yl)-1H-pyrazol-1-yl)-1,1-dioxotetrahydro-2H-thiopyran-4-yl)-N-(2,2,2-trifluoroethyl)acetamide], the IC50 (usually the concentration that gives 50% inhibition) at JAK2 was > 50 nM; at JAK1, 20 to 50 nM; at JAK3 it was > 50 nM.

With `CS(=O)(=O)N1CCC(CC(=O)NCC(F)(F)F)(n2cc(-c3c[nH]c4ncccc34)cn2)CC1` [Example 22, 2-(4-(4-(7H-pyrrolo[2,3-b]pyridin-3-yl)-1H-pyrazol-1-yl)-1-(methylsulfonyl)piperidin-4-yl)-N-(2,2,2-trifluoroethyl)acetamide], the half-maximal inhibitory concentration (IC50) on JAK2, on JAK1 and at JAK3 was > 50 nM in each case.

Consider `CS(=O)(=O)N1CCC(CC(=O)NCC(F)(F)F)(n2cc(-c3ncnc4[nH]ccc34)cn2)CC1` [Example 23, 2-(4-(4-(7H-pyrrolo[2,3-b]pyrimidin-4-yl)-1H-pyrazol-1-yl)-1-(methylsulfonyl)piperidin-4-yl)-N-(2,2,2-trifluoroethyl)acetamide], for which the IC50 was > 50 nM at JAK2, 20 to 50 nM on JAK1 and > 50 nM at JAK3.

`CS(=O)(=O)N1CCC(CC(=O)NCC(F)(F)F)(n2cc(-c3ccnc4[nH]ccc34)cn2)CC1` [Example 24, 2-(4-(4-(7H-pyrrolo[2,3-b]pyridin-4-yl)-1H-pyrazol-1-yl)-1-(methylsulfonyl)piperidin-4-yl)-N-(2,2,2-trifluoroethyl)acetamide]: the values for the concentration for half-maximal inhibition (IC50) at JAK2, at JAK1 and on JAK3 were > 50 nM, 20 to 50 nM and > 50 nM, respectively.

As to `O=C(CC1(n2cc(-c3ccnc4[nH]ccc34)cn2)CCCC1)NCC(F)(F)F` [Example 27, 2-(1-(4-(1H-pyrrolo[2,3-b]pyridin-4-yl)-1H-pyrazol-1-yl)cyclopentyl)-N-(2,2,2-trifluoroethyl) acetamide], the IC50 on JAK2 is > 50 nM; at JAK1, 20 to 50 nM; at JAK3, > 50 nM.

Turning to `CC(C)(CC(=O)NCC(F)(F)F)n1cc(-c2c[nH]c3ncccc23)cn1` [Example 28, 3-(4-(1H-pyrrolo[2,3-b]pyridin-3-yl)-1H-pyrazol-1-yl)-3-methyl-N-(2,2,2-trifluoroethyl)butanamide], the results for the 50% inhibitory concentration (IC50) on JAK2, on JAK1 and on JAK3 were 20 to 50 nM, > 50 nM and > 50 nM, respectively.

For the compound `CC(C)(CC(=O)NCC(F)(F)F)n1cc(-c2ncnc3[nH]ccc23)cn1` [Example 29], the figures for the half-maximal inhibitory concentration (IC50) on JAK2, on JAK1 and at JAK3 were 20 to 50 nM, > 50 nM and < 20 nM, respectively.

As for `O=C(NCC(F)(F)F)C1(Nc2ccnc(-c3c[nH]c4ncccc34)n2)CN(S(=O)(=O)C2CC2)C1` [Example 33, 3-((2-(1H-pyrrolo[2,3-b]pyridin-3-yl)pyrimidin-4-yl)amino)-1-(cyclopropylsulfonyl)-N-(2,2,2-trifluoroethyl)azetidin-3-carboxamide], the values for the IC50 on JAK2, on JAK1 and on JAK3 were > 50 nM, > 50 nM and 20 to 50 nM, respectively.

Regarding `O=C(NCC(F)(F)F)C1(Nc2nc(-c3c[nH]c4ncccc34)ncc2F)CN(S(=O)(=O)C2CC2)C1` [Example 36], the IC50 on JAK2 is > 50 nM; on JAK1, > 50 nM; on JAK3, 20 to 50 nM.

As to `CS(=O)(=O)N1CCC(Nc2ccnc(-c3c[nH]c4ncccc34)n2)(C(=O)NCC(F)(F)F)CC1` [Example 37, 4-((2-(1H-pyrrolo[2,3-b]pyridin-3-yl)pyrimidin-4-yl)amino)-1-(methylsulfonyl)-N-(2,2,2-trifluoroethyl)piperidin-4-carboxamide], the half-maximal inhibitory concentration (IC50) on JAK2 is > 50 nM; on JAK1 it was > 50 nM; at JAK3, 20 to 50 nM.

As for `O=C(NCC(F)(F)F)C1(Nc2ccnc(-c3c[nH]c4ncccc34)n2)CCN(S(=O)(=O)C2CC2)CC1` [Example 39, 4-((2-(1H-pyrrolo[2,3-b]pyridin-3-yl)pyrimidin-4-yl)amino)-1-(cyclopropylsulfonyl)-N-(2,2,2-trifluoroethyl)piperidin-4-carboxamide], the half-maximal inhibitory concentration (IC50) at JAK2 is > 50 nM; on JAK1 it was > 50 nM; at JAK3 it was 20 to 50 nM.

Consider `O=C(NCC(F)(F)F)C1(Nc2nc(-c3c[nH]c4ncccc34)ncc2F)CCN(S(=O)(=O)C2CC2)CC1` [Example 42, 4-((5-fluoro-2-(1H-pyrrolo[2,3-b]pyridin-3-yl)pyrimidin-4-yl)amino)-1-(cyclopropylsulfonyl)-N-(2,2,2-trifluoroethyl)piperidin-4-carboxamide], for which the IC50 is 20 to 50 nM at JAK2, > 50 nM on JAK1 and 20 to 50 nM on JAK3.

Turning to `CCS(=O)(=O)N1CC(C#N)(Nc2ccnc(-c3c[nH]c4ncccc34)n2)C1` [Example 45, 3-((2-(1H-pyrrolo[2,3-b]pyridin-3-yl)pyrimidin-4-yl)amino)-1-(ethylsulfonyl) azetidine-3-carbonitrile], the 50% inhibitory concentration (IC50) at JAK2 was 20 to 50 nM; at JAK1, > 50 nM; on JAK3, 20 to 50 nM.

With `CCS(=O)(=O)N1CC(C#N)(Nc2ccnc(-c3ncnc4[nH]ccc34)n2)C1` [Example 46, 3-((2-(7H-pyrrolo[2,3-d]pyrimidin-4-yl)pyrimidin-4-yl)amino)-1-(ethylsulfonyl)azetidine-3-carbonitrile], the IC50 on JAK2, at JAK1 and at JAK3 was > 50 nM in each case.

As to `CS(=O)(=O)N1CC(C#N)(Nc2ccnc(-c3c[nH]c4ncccc34)n2)C1` [Example 48, 3-((2-(1H-pyrrolo[2,3-b]pyridin-3-yl)pyrimidin-4-yl)amino)-1-(methylsulfonyl) azetidine-3-carbonitrile], the IC50 on JAK2, on JAK1 and on JAK3 was > 50 nM each time.

For `CS(=O)(=O)N1CC(C#N)(Nc2ccnc(-c3ncnc4[nH]ccc34)n2)C1` [Example 49, 3-((2-(7H-pyrrolo[2,3-d]pyrimidin-4-yl)pyrimidin-4-yl)amino)-1-(methylsulfonyl) azetidine-3-carbonitrile], the IC50 on JAK2 was > 50 nM; at JAK1 it was > 50 nM; on JAK3 it was 20 to 50 nM.

As to `CS(=O)(=O)N1CC(C#N)(Nc2ccnc(-c3ccnc4[nH]ccc34)n2)C1` [Example 50, 3-((2-(1H-pyrrolo[2,3-b]pyridin-4-yl)pyrimidin-4-yl)amino)-1-(methylsulfonyl) azetidine-3-carbonitrile], the IC50 on JAK2, at JAK1 and on JAK3 was > 50 nM throughout.

On to `N#CC1(Nc2ccnc(-c3c[nH]c4ncccc34)n2)CCS(=O)(=O)CC1` [Example 51, 4-((2-(1H-pyrrolo[2,3-b]pyridin-3-yl)pyrimidin-4-yl)amino)tetrahydro-2H-thiopyran-4-carbonitrile 1,1-dioxide], for which the half-maximal inhibitory concentration (IC50) on JAK2 is > 50 nM; at JAK1, > 50 nM; on JAK3, 20 to 50 nM.

On to `N#CC1(Nc2ccnc(-c3ncnc4[nH]ccc34)n2)CCS(=O)(=O)CC1` [Example 52, 4-((2-(7H-pyrrolo[2,3-d]pyrimidin-4-yl)pyrimidin-4-yl)amino)tetrahydro-2H-thiopyran-4-carbonitrile 1,1-dioxide], for which the concentration for half-maximal inhibition (IC50) at JAK2, on JAK1 and at JAK3 was > 50 nM throughout.

Turning to `N#CC1(Nc2ccnc(-c3ccnc4[nH]ccc34)n2)CCS(=O)(=O)CC1` [Example 53, 4-((2-(1H-pyrrolo[2,3-b]pyridin-4-yl)pyrimidin-4-yl)amino)tetrahydro-2H-thiopyran-4-carbo nitrile 1,1-dioxide], the IC50 on JAK2 was > 50 nM; at JAK1, > 50 nM; at JAK3 it was 20 to 50 nM.

Consider `N#CC1(Nc2ccnc(-c3ccnc4[nH]ccc34)n2)CCC1` [Example 56, 1-((2-(1H-pyrrolo[2,3-b]pyridin-4-yl)pyrimidin-4-yl)amino)cyclobutanecarbonitrile], for which the IC50 at JAK2, on JAK1 and on JAK3 was > 50 nM throughout.

In the case of `N#CC1(Nc2ccnc(-c3c[nH]c4ncccc34)n2)CCCC1` [Example 57, 1-((2-(1H-pyrrolo[2,3-b]pyridin-3-yl)pyrimidin-4-yl)amino)cyclopentanecarbonitrile], the 50% inhibitory concentration (IC50) at JAK2 was > 50 nM; on JAK1 it was > 50 nM; at JAK3, 20 to 50 nM.

With `N#CC1(Nc2ccnc(-c3ncnc4[nH]ccc34)n2)CCCC1` [Example 58, 1-((2-(7H-pyrrolo[2,3-d]pyrimidin-4-yl)pyrimidin-4-yl)amino)cyclopentanecarbonitrile], the half-maximal inhibitory concentration (IC50) at JAK2, on JAK1 and on JAK3 was > 50 nM throughout.

Regarding `N#CC1(Nc2ccnc(-c3ccnc4[nH]ccc34)n2)CCCC1` [Example 59, 1-((2-(1H-pyrrolo[2,3-b]pyridin-4-yl)pyrimidin-4-yl)amino)cyclopentanecarbonitrile], the results for the concentration for half-maximal inhibition (IC50) at JAK2, at JAK1 and on JAK3 were > 50 nM, > 50 nM and 20 to 50 nM, respectively.

As to `CC[C@](C)(C#N)Nc1ccnc(-c2c[nH]c3ncccc23)n1` [Example 60], the 50% inhibitory concentration (IC50) was > 50 nM at JAK2, > 50 nM at JAK1 and 20 to 50 nM on JAK3.

As for `CC[C@](C)(C#N)Nc1ccnc(-c2ncnc3[nH]ccc23)n1` [Example 61], the concentration for half-maximal inhibition (IC50) on JAK2, on JAK1 and on JAK3 was > 50 nM throughout.
